# Test results from US20110044963A1, “Method of Testing a Patient for Hypertension and Related Method of Treatment and Test Kit” (priority 2009, published 2011).
# Tests used:
# [1] = tested on: volume expansion model rats (nephrectomy DOCA saline); experiment: Volume expansion hypertension model (nephrectomy, DOCA, saline), urinary angiotensinogen excretion; format: in vivo, rat
# Protocol: (§1) Tests were performed to determine whether nonpregnant rats of one of two models of human essential hypertension would create a problem with respect to the other model. More specifically, a volume expansion model included taking out one kidney, thereby accelerating the process of developing hypertension, plus the replacement of drinking water with saline and weekly administration of DOCA, a powerful mineralocorticoid in order to ensure that the salt present in the saline is retained in the rat. This was compared with a model used to induce vasoconstriction by infusing a powerful vasoconstrictor, angiotensin II. It was theorized that the use of an antagonist of MBG, resibufogenin (“RBG”) would ameliorate the hypertension in volume expanded animals and would have no effect on the rats infused with angiotensin II.
# (§2) The test indicates the group of rats from a Sham (control) rat with measurements being taken initially and finally. It is noted that, in the NDS rats, which were subjected to nephrectomy and DOCA plus saline, there was no significant increase in the excretion of angiotensinogen. […] The RBG, as expected, also had no effect on the hypertension induced by angiotensin infusion.
# [2] = tested on: rats infused with angiotensin II; experiment: Vasoconstriction hypertension model (angiotensin II infusion), urinary angiotensinogen excretion and hypertension; format: in vivo, rat; conditions: for angiotensinogen excretion (in words): angiotensin II treated rats, compared with Sham rats; for UAGT (Final) / UAGT (Initial): male rats, angiotensin infusion model; for UAGT (Final): final measurement, Sham 2.4 ± 0.5; for UAGT (Initial): initial measurement
# Protocol: as §1, §2
Compound,"increase in angiotensinogen (in words) ([1]; NDSR rats: nephrectomy, DOCA plus saline, treated with resibufogenin)","UAGT (Final) ([1]; male rats, nephrectomy DOCA saline model, final measurement, NDS without RBG 2.2 ± 0.3) [nmol/day]",effect on the hypertension induced by angiotensin infusion ([2]; angiotensin II infused rats),angiotensinogen excretion (in words) [2],UAGT (Final) [2] [nmol/day],UAGT (Initial) [2] [nmol/day]
"C[C@]12CC[C@H](O)C[C@H]1CC[C@@H]1[C@@H]2CC[C@]2(C)[C@@H](c3ccc(=O)oc3)C[C@H]3O[C@]132 [RBG, resibufogenin]",no meaningful increase,2.0 ± 0.2,no effect,no effect,7.8 ± 0.4,2.6 ± 0.2
"angiotensin II (DRVYIHPF; Angiotensin-2; UniProt P01019 25-32, looked up) [powerful vasoconstrictor, an octapeptide, infused to induce vasoconstriction]",,,,very substantial increase,7.1 ± 0.5,2.6 ± 0.2
